{"source": "patent US20140364552A1", "about": "“AQUEOUS RESIN COMPOSITION COMPRISING FILM-FORMING AID, AND STEEL SHEET SURFACE TREATMENT AGENT CONTAINING THE SAME” (DIC Corporation, priority 2011, published 2014)", "key": {"[1]": {"details": "cited from earlier work"}, "[2]": {"experiment": "Evaluating film-forming property (cracks in cast coating film)", "assay_type": "physicochemical", "method": "After drying for 24 hours, the film-forming property was evaluated by visual observation based on criteria below. When no crack occurred, the film-forming property was evaluated as “A”, when fine cracks slightly occurred, the film-forming property was evaluated as “B”, and when clear cracks occurred over the entire surface of the coating film, the film-forming property was evaluated as “C”."}, "[3]": {"experiment": "Evaluating alkali resistance of coating film on galvanized steel sheet", "assay_type": "physicochemical", "quoted_text": "Each of the aqueous resin compositions immediately after preparation was applied on a galvanized steel sheet by using a film applicator so that an amount of application was 0.1 g/100 cm^2 and then dried at 80° C. for 30 seconds to form a test piece. Next, 0.5 mL of a 5% aqueous sodium hydroxyl solution was dropped on the test piece which was then allowed to stand for 30 minutes. After being allowed to stand, the appearance of a coating film in a portion where the liquid adhered was evaluated based on criteria below. When no change occurred in the appearance, alkali resistance was evaluated as “A”; when the coating film was discolored black or dissolved in an area of less than 10%, alkali resistance was evaluated as “B”; when the coating film was discolored black or dissolved in an area of 10% or more and less than 30%, alkali resistance was evaluated as “C”; and when the coating film was discolored black or dissolved in an area of 30% or more, alkali resistance was evaluated as “D”."}, "[4]": {"experiment": "Corrosion resistance, salt spray test JIS Z2371", "assay_type": "physicochemical", "quoted_text": "Each of the aqueous resin compositions immediately after preparation was applied on a galvanized steel sheet by using a film applicator so that an amount of application was 0.1 g/100 cm^2 and then dried at 80° C. for 30 seconds to form a test piece. According to a salt spray test method described in JIS Z2371, a 5 mass % aqueous sodium chloride solution was sprayed on the test piece at an ambient temperature of 35° C., and a rate of occurrence of white rust after 240 hours was measured and evaluated based on criteria below. In addition, a tape seal was attached to a portion where the aqueous resin composition was not applied (the end surfaces and back surface). When no white rust occurred, corrosion resistance was evaluated as “A”; when white rust occurred in an area of less than 5% of the whole coating area, corrosion resistance was evaluated as “B”; when white rust occurred in an area of 5% or more and less than 20% of the whole coating area, corrosion resistance was evaluated as “C”; and when white rust occurred in an area of 20% or more of the whole coating area, corrosion resistance was evaluated as “D”."}}}
{"smiles": "CN1CCCC1=O", "note": "[N-methyl-2-pyrrolidone]", "values": [{"measurement": "toxicity (in words)", "setting": "[1]", "value": "problem of toxicity"}, {"measurement": "film-forming property (in words)", "setting": "[2]", "value": "excellent"}, {"measurement": "alkali resistance of coating film (in words)", "setting": "[3]", "value": "excellent"}, {"measurement": "corrosion resistance of coating film (in words)", "setting": "[4]", "value": "excellent"}]}
